Experimental findings from patent US20250099420A1, “SMALL MOLECULE MODULATORS OF GPR139 COMPLEX” (University of Florida Research Foundation, Incorporated, priority 2022, published 2025) are described below.

Each structure is given as a SMILES string. pEC50: −log10 of the molar value. Like-named read-outs stand apart in the source and are kept apart here.

Data set [1] concerns the target T1, GPR139 (Homo sapiens, UniProt Q6DWJ6).
T1 sequence (Q6DWJ6 1-353): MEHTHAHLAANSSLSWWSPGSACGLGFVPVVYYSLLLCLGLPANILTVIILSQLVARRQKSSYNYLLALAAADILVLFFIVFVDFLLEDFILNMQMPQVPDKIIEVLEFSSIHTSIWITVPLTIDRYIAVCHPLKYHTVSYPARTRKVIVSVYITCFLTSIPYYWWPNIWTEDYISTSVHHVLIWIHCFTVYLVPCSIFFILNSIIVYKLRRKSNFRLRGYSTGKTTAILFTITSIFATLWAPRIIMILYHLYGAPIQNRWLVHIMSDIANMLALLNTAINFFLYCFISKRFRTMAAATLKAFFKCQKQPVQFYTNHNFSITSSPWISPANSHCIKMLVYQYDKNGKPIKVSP
Kind of data set: GPR139 Agonist titration / agonist counterscreen assay (calcium detection, HEK-GPR139 cells). In kind it is cell-based. Set-up: expressed in transfected cells; host or cells: HEK Aequorin cells, Maxcyte transient transfection. Particulars: GPR139 Agonist Activity; for Averaged Max % Response (±St. Dev.): activity relative to known control; for pEC50: read-out: EC50. The protocol:
GPR activity was assessed using a calcium detection assay. […] Negative control samples were treated with DMSO. […] Intracellular calcium was measured using Calcium 5.

Data set [2] relates to parental HEK cells. Kind of data set: HEK parental Agonist Counterscreen Assay (non-transfected cells). Conditions: for Averaged Max % Response (±St. Dev.): activity relative to known control. In kind it is cell-based. From the text: The high control for the agonist counterscreen was Forskolin not acetylcholine.
Setting [3] is: Homo sapiens, HEK293, HEK Agonist Activity section of Table 4 (parental HEK counterscreen).
Setting [4] is: values printed in E-notation without unit.
The mark [5] stands for this setting: Homo sapiens, HEK293, HEK Agonist Activity, parental non-transfected HEK cells.

Consider `Cc1ccc(OCC(=O)NNC(=O)CN(C)S(=O)(=O)c2ccc(C)cc2)cc1` [SR-01000069435], for which the “Averaged Max % Response (±St. Dev.)” value in data set [1] was 94.34 ± 21.26%; in data set [2] (HEK Agonist Activity section) it was 14.76 ± 3.78%. Further, the results for the “Lipophilic Efficiency (logD)” value in data set [1] (based on logD) and in data set [2] (HEK Agonist Activity section) were 5.44 and 3.09, respectively. Also, the entries for the “Lipophilic Efficiency (logP)” value in data set [1] (based on logP) and in data set [2] (HEK Agonist Activity section) were 5.43 and 3.08, respectively. Besides, the “Hill Slope” value in data set [1] (fitted dose-response curve) was 0.66. In addition, the “Efficiency Ligand” value in data set [1] (ligand efficiency) is listed as 0.36. In data set [2] (setting [3]), the pEC50 is below 4.84.
With `O=C(CCC1CCCC1)NNC(=O)CSc1ccc(Cl)cc1` [SR-01000069439], the figures for the “Averaged Max % Response (±St. Dev.)” value in data set [1] and in data set [2] (HEK Agonist Activity section) were 123.43 ± 12.00% and 1.51 ± 2.29%, respectively. For the same molecule, the “Lipophilic Efficiency (logD)” value is listed as 3.93 in data set [1] (based on logD) and 1.55 in data set [2] (HEK Agonist Activity section). In addition, the “Lipophilic Efficiency (logP)” value was 3.93 in data set [1] (based on logP) and 1.55 in data set [2] (HEK Agonist Activity section). In data set [1] (fitted dose-response curve), the “Hill Slope” value is given as 0.62. Moreover, the “Efficiency Ligand” value in data set [1] (ligand efficiency) was 0.46. The figures for the negative logarithm of the EC50 (pEC50) in data set [1] (setting [4]) and in data set [2] (setting [3]) were 7.21 and below 4.83, respectively.
On to `O=C(Cc1cccc2ccccc12)NCC(=O)NNC(=O)c1ccco1` [SR-01000069451], for which the “Averaged Max % Response (±St. Dev.)” value in data set [1] turned out to be 95.18 ± 9.10%; in data set [2] (HEK Agonist Activity section), 25.95 ± 1.00%. The “Lipophilic Efficiency (logD)” value in data set [1] (based on logD) is listed as 6.21; in data set [2] (HEK Agonist Activity section), 3.83. Further, the entries for the “Lipophilic Efficiency (logP)” value in data set [1] (based on logP) and in data set [2] (HEK Agonist Activity section) were 6.20 and 3.83, respectively. For the same molecule, the “Hill Slope” value in data set [1] (fitted dose-response curve) was found to be 1.06. For the same molecule, in data set [1] (ligand efficiency), the “Efficiency Ligand” value was 0.39. The values for the pEC50 in data set [1] (setting [4]) and in data set [2] (setting [3]) were 7.22 and below 4.84, respectively.
For the molecule `COc1ccccc1CC1(C)NC(=O)N(CC(=O)NC(C)c2cccc(Cl)c2)C1=O` (centres unmarked) [SR-01000069564], the “Averaged Max % Response (±St. Dev.)” value in data set [1] is recorded as 87.90 ± 18.60%; in data set [2] (HEK Agonist Activity), −3.54 ± 8.88%. Moreover, the “Lipophilic Efficiency (logD)” value in data set [1] (based on logD) is 4.85; in data set [2] (HEK Agonist Activity), 1.93. Moreover, the entries for the “Lipophilic Efficiency (logP)” value in data set [1] (based on logP) and in data set [2] (HEK Agonist Activity) were 4.85 and 1.93, respectively. Besides, in data set [1] (fitted dose-response curve), the “Hill Slope” value stood at 0.93. For the same molecule, the “Efficiency Ligand” value in data set [1] (ligand efficiency) is 0.36. Further, the pEC50 in data set [1] (setting [4]) is 7.76; in data set [2] (HEK Agonist Activity, parental non-transfected HEK cells), below 4.84.
With `O=C(CCc1nc2ccccc2s1)NNC(=O)CSc1ccccc1F` [SR-01000069574], in data set [1], the “Efficiency Ligand” value stood at 0.35, the “Hill Slope” value is 0.94, the “Lipophilic Efficiency (logD)” value worked out at 3.68 and the “Lipophilic Efficiency (logP)” value worked out at 3.67. Moreover, in data set [1], the “Averaged Max % Response (±St. Dev.)” value is reported as 93.05 ± 4.55%. For the same molecule, the pEC50 in data set [1] (HEK-GPR139 cells) is 6.47. Also, in data set [2] (HEK Agonist Activity section), the “Lipophilic Efficiency (logD)” value is given as 2.04, the “Lipophilic Efficiency (logP)” value was determined as 2.04 and the “Averaged Max % Response (±St. Dev.)” value was 7.10 ± 4.83%. Moreover, in data set [2] (setting [3]), the pEC50 was below 4.84.
Consider `Cc1ccc(C)c(C(=O)CCC(=O)NNC(=O)c2cc(C)oc2C)c1` [SR-01000069642], for which the entries for the “Averaged Max % Response (±St. Dev.)” value in data set [1] and in data set [2] (HEK Agonist Activity) were 100.05 ± 4.70% and 8.55 ± 4.45%, respectively. In addition, the figures for the “Lipophilic Efficiency (logD)” value in data set [1] (based on logD) and in data set [2] (HEK Agonist Activity) were 4.99 and 2.45, respectively. The “Lipophilic Efficiency (logP)” value in data set [1] (based on logP) came to 4.99; in data set [2] (HEK Agonist Activity) it was 2.45. In addition, the “Hill Slope” value in data set [1] (fitted dose-response curve) came out at 0.80. Besides, the “Efficiency Ligand” value in data set [1] (ligand efficiency) worked out at 0.41. The pEC50 in data set [1] (setting [4]) is 7.37; in data set [2] (setting [5]) it was below 4.83.
As to `O=C(CN1C(=O)NC2(CCc3ccccc32)C1=O)Nc1cccc(Cl)c1` (centres unmarked) [SR-01000069699], the “Averaged Max % Response (±St. Dev.)” value is recorded as 116.05 ± 3.28% in data set [1] and 12.32 ± 5.16% in data set [2] (HEK Agonist Activity section). Further, the “Lipophilic Efficiency (logD)” value in data set [1] (based on logD) stood at 4.18; in data set [2] (HEK Agonist Activity section), 2.03. Besides, the results for the “Lipophilic Efficiency (logP)” value in data set [1] (based on logP) and in data set [2] (HEK Agonist Activity section) were 4.18 and 2.03, respectively. In addition, in data set [1] (fitted dose-response curve), the “Hill Slope” value came to 0.54. Further, in data set [1] (ligand efficiency), the “Efficiency Ligand” value is listed as 0.38. Besides, the negative-log EC50 (pEC50) in data set [1] (setting [4]) was 6.97; in data set [2] (setting [3]) it was below 4.82.
As for `COc1cc(C(=O)NNC(=O)CSc2ccc(C)cc2)cc(OC)c1C` [SR-01000070170], in data set [1], the “Efficiency Ligand” value was determined as 0.34, the “Hill Slope” value was 0.96, the “Lipophilic Efficiency (logD)” value is listed as 3.40 and the “Lipophilic Efficiency (logP)” value worked out at 3.40. Further, in data set [1], the “Averaged Max % Response (±St. Dev.)” value is listed as 98.34 ± 1.36%. For the same molecule, the negative logarithm of the EC50 (pEC50) in data set [1] (HEK-GPR139 cells) was 6.33. In addition, in data set [2] (HEK Agonist Activity section), the “Lipophilic Efficiency (logD)” value came out at 1.89, the “Lipophilic Efficiency (logP)” value is given as 1.89 and the “Averaged Max % Response (±St. Dev.)” value is listed as 6.82 ± 9.60%. Moreover, the negative-log EC50 (pEC50) in data set [2] (setting [3]) is below 4.82.
`Cc1ccccc1SCC(=O)NNC(=O)C1CCCCC1` [SR-01000070173]: in data set [1], the “Efficiency Ligand” value is reported as 0.42, the “Hill Slope” value is 0.62, the “Lipophilic Efficiency (logD)” value was determined as 3.30 and the “Lipophilic Efficiency (logP)” value is recorded as 3.30. Also, in data set [1], the “Averaged Max % Response (±St. Dev.)” value was 99.23 ± 7.18%. For the same molecule, the negative-log EC50 (pEC50) in data set [1] (HEK-GPR139 cells) was 6.29. For the same molecule, in data set [2] (HEK Agonist Activity section), the “Lipophilic Efficiency (logD)” value amounted to 1.83, the “Lipophilic Efficiency (logP)” value is listed as 1.83 and the “Averaged Max % Response (±St. Dev.)” value came out at 7.45 ± 6.67%. Also, in data set [2] (setting [3]), the pEC50 is below 4.83.
Consider `Cc1ccc2c(c1)CCCN2CC(=O)N(C)c1c(N)n(Cc2ccccc2)c(=O)[nH]c1=O` [SR-01000070509], for which the “Averaged Max % Response (±St. Dev.)” value is on record as 96.94 ± 14.18% in data set [1] and 15.75 ± 7.96% in data set [2] (HEK Agonist Activity section). Moreover, the “Lipophilic Efficiency (logD)” value in data set [1] (based on logD) stood at 4.29; in data set [2] (HEK Agonist Activity section), 2.32. Further, the results for the “Lipophilic Efficiency (logP)” value in data set [1] (based on logP) and in data set [2] (HEK Agonist Activity section) were 4.29 and 2.31, respectively. Besides, in data set [1] (fitted dose-response curve), the “Hill Slope” value was 0.89. Besides, the “Efficiency Ligand” value in data set [1] (ligand efficiency) came out at 0.30. In addition, the negative logarithm of the EC50 (pEC50) in data set [1] (setting [4]) is 6.82; in data set [2] (HEK Agonist Activity section of Table 4 (parental HEK counterscreen)), below 4.84.
For the molecule `Cc1cc(C(=O)CCC(=O)NNC(=O)CSc2nc3ccccc3s2)c(C)s1` [SR-01000070591], the “Averaged Max % Response (±St. Dev.)” value in data set [1] was 126.06 ± 10.32%; in data set [2] (HEK Agonist Activity), −5.74 ± 0.47%. Moreover, the “Lipophilic Efficiency (logD)” value in data set [1] (based on logD) was determined as 4.02; in data set [2] (HEK Agonist Activity), 1.00. Besides, the figures for the “Lipophilic Efficiency (logP)” value in data set [1] (based on logP) and in data set [2] (HEK Agonist Activity) were 4.02 and 1.00, respectively. Also, the “Hill Slope” value in data set [1] (fitted dose-response curve) worked out at 0.31. Also, the “Efficiency Ligand” value in data set [1] (ligand efficiency) came out at 0.39. The negative-log EC50 (pEC50) in data set [1] (setting [4]) was 7.87; in data set [2] (setting [5]), below 4.84.
As to `O=C(Cn1nnc(-c2ccccc2)n1)NNC(=O)Cn1c(C(F)(F)F)nc2ccccc21` [SR-01000070891], the entries for the “Averaged Max % Response (±St. Dev.)” value in data set [1] and in data set [2] (HEK Agonist Activity) were 105.87 ± 4.30% and 8.31 ± 6.92%, respectively. Also, the figures for the “Lipophilic Efficiency (logD)” value in data set [1] (based on logD) and in data set [2] (HEK Agonist Activity) were 4.97 and 1.86, respectively. Also, the “Lipophilic Efficiency (logP)” value is recorded as 4.93 in data set [1] (based on logP) and 1.83 in data set [2] (HEK Agonist Activity). The “Hill Slope” value in data set [1] (fitted dose-response curve) stood at 0.88. Also, the “Efficiency Ligand” value in data set [1] (ligand efficiency) is 0.35. Besides, the pEC50 is 7.92 in data set [1] (setting [4]) and below 4.82 in data set [2] (setting [5]).
